From publication PMC8338929, “Acetylation turns leucine into a drug by membrane transporter switching” (Scientific Reports, 2021)

Biological target: T1, Human OAT3 (SLC22A8) (Homo sapiens, UniProt Q8TCC7)
T1 construct: host or cells: HEK-293
T1 sequence (Q8TCC7 1-542): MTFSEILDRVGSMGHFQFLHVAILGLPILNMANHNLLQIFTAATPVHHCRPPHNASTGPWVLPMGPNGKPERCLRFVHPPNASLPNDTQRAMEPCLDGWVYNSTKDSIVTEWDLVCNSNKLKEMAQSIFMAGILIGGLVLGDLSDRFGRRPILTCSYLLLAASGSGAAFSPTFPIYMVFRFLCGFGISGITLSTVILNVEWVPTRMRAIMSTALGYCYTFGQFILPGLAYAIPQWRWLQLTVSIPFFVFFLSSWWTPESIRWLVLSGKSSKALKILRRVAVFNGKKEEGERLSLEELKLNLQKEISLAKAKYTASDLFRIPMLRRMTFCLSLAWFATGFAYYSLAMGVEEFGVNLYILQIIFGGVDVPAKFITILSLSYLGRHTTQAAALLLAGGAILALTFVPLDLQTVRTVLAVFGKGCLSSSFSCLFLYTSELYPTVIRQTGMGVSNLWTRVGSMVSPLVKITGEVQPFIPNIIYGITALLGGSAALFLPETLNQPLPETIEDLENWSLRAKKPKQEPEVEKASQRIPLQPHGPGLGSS
Test: OAT3-mediated cellular uptake in overexpressing HEK-293 cells
Type: cell-based
Procedure: Cells were grown in DMEM (Gibco 4196, high glucose, without sodium pyruvate) supplemented with MEM non-essential amino acids and 10% fetal bovine serum. Cells were re-fed with fresh medium after attachment (4–6 h post-seeding). Cell were plated at a density of 4 × 10^5/well in 24-well plates coated with poly-D-lysine. Transporter assays were conducted in 400 µL of HBSS supplemented with 10 mM Hepes, pH 7.4
The known probe substrates used as positive controls were 3 μM chlorothiazide for OAT1, 2 μM estrone-3-sulfate for OAT3, 10 µM [^3H]gabapentin for LAT1, 50 µM [^3H]Gly-Sar for PepT1, 500 µM thiophene-2-glyoxylic acid for MCT1. The known inhibitors used as controls for each transporter were 100 μM diclofenac for OAT1 and OAT3, 10 µM JPH203 for LAT1 and 200 µM losartan for PepT1. All incubations were in triplicate and contained 1% (OAT1 and OAT3) or 0.5% DMSO (LAT, PepT1 and MCT1). The duration of uptake was 5 min for OAT1 and OAT3, 3 min for LAT1 and PepT1 and 1 min for MCT1. Assays were performed at 37 °C with no shaking, except MCT1 at room temperature. To determine uptake due to the overexpressed transporter per se, uptake was taken as the difference between accumulation between transfected and nontransfected cells in parallel experiments at the same concentration and time. To terminate uptake the plate was placed on ice and cells washed twice with ice-cold transport buffer. […]

CC(=O)N[C@@H](CC(C)C)C(=O)O [N-acetyl-L-leucine]
Vmax OAT3 uptake (Michaelis-Menten fit): 138
substrate of OAT3 (uptake) (pH 7.4, 5 min): substrate
